Test results taken from publication PMC12430443, “Discovery of Novel Benzamide-Based Sigma-1 Receptor Agonists with Enhanced Selectivity and Safety” (Molecules, 2025).
Like-named read-outs stand apart in the source and are kept apart here.

What was measured:
S2R = target: T1, S2R (Homo sapiens, UniProt Q5BJF2); assay: S2R competitive radioligand binding, [3H]-DTG with excess (+)-pentazocine, Jurkat cell membranes; conditions: [3H]-DTG displacement with excess (+)-pentazocine, n = 2
T1 construct: For the S2R assay, Jurkat cell membranes (10–20 μg protein/tube) were incubated at room temperature for 1 h; host or cells: Jurkat cell membranes
T1 sequence (Q5BJF2 whole entry): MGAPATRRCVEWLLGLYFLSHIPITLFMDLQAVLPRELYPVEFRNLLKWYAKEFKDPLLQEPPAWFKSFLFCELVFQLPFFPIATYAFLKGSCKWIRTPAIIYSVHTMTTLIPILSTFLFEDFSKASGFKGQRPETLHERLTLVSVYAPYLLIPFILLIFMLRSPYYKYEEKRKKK
From the text: S1R and S2R affinities were classically evaluated through competitive binding assays using radioligands, following the protocol described by Ganapathy et al.. The selective radioligand [^3H] (+)-pentazocine was employed as the classic prototypical ligand, selectively binding to the orthosteric S1R-binding sites. […] Jurkat cell membranes served as the receptor source in both assays. The equilibrium dissociation constants (Ki) for S1R and S2R were derived from the IC50 values of each compound, and selectivity ratios (S2R/S1R) were subsequently calculated (Table 1, Figures S2 and S3).
Binding assays were performed by Eurofins Cerep (Poitiers, France) according to the protocol of Ganapathy. […] For the S2R assay, Jurkat cell membranes (10–20 μg protein/tube) were incubated at room temperature for 1 h in the same buffer with [^3H]-DTG (25 nM) in the presence of (+)-pentazocine (1 μM) to saturate S1R, along with a range of test compound concentrations. Bound radioactivity was quantified by liquid scintillation counting. Nonspecific binding was determined under identical conditions in the presence of 10 μM unlabeled haloperidol. The IC50 values (concentration causing a half-maximal inhibition of control-specific binding) and Hill coefficients (nH) were determined by non-linear regression analysis of the competition curves generated with mean replicate values using Hill equation curve-fitting. This analysis was performed using software developed at Cerep (Hill software) and validated by comparison with data generated by the commercial software SigmaPlot ®4.0 for Windows® (©1997 by SPSS Inc.). Inhibition constants (Ki) were calculated from IC50 values using the method of Cheng and Prusoff.

CYP2C19 = target: T2, CYP2C19 (Homo sapiens, UniProt P33261); assay: CYP inhibition in human liver microsomes; format: in vitro ADME; conditions: n = 2, read-out: CYP inhibition 2C19
T2 construct: tissue Eurofins Cerep (assay provider); host or cells: human liver microsomes
T2 sequence (P33261 whole entry): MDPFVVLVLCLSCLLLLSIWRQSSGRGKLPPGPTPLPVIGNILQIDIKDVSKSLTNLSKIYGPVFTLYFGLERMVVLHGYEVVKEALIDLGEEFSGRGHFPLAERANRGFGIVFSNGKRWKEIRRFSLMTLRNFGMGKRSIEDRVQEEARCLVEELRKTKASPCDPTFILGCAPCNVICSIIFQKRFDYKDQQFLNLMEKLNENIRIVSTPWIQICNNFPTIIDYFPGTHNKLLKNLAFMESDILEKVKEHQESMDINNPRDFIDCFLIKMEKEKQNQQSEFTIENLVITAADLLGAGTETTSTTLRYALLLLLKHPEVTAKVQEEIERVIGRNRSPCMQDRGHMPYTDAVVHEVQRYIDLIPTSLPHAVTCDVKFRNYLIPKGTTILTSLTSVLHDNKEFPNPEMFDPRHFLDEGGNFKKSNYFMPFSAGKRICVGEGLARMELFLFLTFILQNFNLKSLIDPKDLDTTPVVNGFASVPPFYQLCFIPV
Procedure: (§1) Microsomal stability was evaluated using human liver microsomes at 10 µM (Table 3). […] Since cytochrome P450 (CYP) enzymes—especially families 1 to 3—play major roles in drug metabolism, CYP inhibition was tested against the human isoforms CYP1A, 2B6, 2C8, 2C9, 2C19, 2D6, and 3A, as recommended by FDA and EMA guidelines. […] Membrane transport proteins, including the ATP-binding cassette (ABC) and solute carrier (SLC) families, affect drug pharmacokinetics and potential drug–drug interactions. The inhibitory effects of compounds 2 and 6 were assessed against five ABC transporters (P-gp, BCRP, MRP1, MRP2, and MRP3) and seven SLC transporters (OAT1, OAT3, OATP1B1, OCT1, OCT2, ASBT, and NTCP).
(§2) Standardized in vitro ADME experiments were performed by Eurofins Cerep (Poitiers, France). Solubility assays were performed in PBS at pH 7.4, but also in simulated gastric fluid (SGF) and intestinal fluid (SIF), through the classical shake-flask method described by Lipinski et al., using HPLC-UV/VIS technology. The results were expressed in µM. The compound was classically evaluated at 10 µM for all of the ADME analyses. Bidirectional permeability (apical A to basolateral B pH 6.5/7.4, and basolateral B to apical A pH 7.4/6.5) was assessed in the epithelial colorectal adenocarcinoma cell line (Caco-2 cell line). The results were expressed as ×10^−6 cm/s (Papp) and as % recovery. The efflux ratio, i.e., Papp (B→A)/Papp(A→B), was calculated. Plasma protein binding was analyzed by HPLC-MS/MS after 4 h of incubation at 37 °C, as described by Banker et al.. Concentration was evaluated by LC/MS-MS. CYP inhibition was performed in human liver microsomes as described in [28]. Analysis of the respective metabolites was performed by HPLC-MS/MS. Transporter inhibition analysis was also performed in overexpressing cell lines. Respective metabolites for each specific transporter substrate were analyzed by fluorometry or scintillation counting, and % inhibition of control values were calculated. P-glycoprotein transporter substrate assessment was performed by bidirectional permeability analysis (apical A to basolateral B pH 7.4/7.4, and basolateral B to apical A pH 7.4/7.4) in the Caco-2 cell line with and without verapamil, as described in [26]. The results were expressed as ×10^−6 cm/s (Papp) and as % recovery. The efflux ratio was calculated as Papp(B→A)/Papp(A→B). CYP450 induction was assessed in human hepatocytes by measuring the mRNA levels of seven CYP isoforms via qPCR, as described in [40]. The compound was tested at 1, 10, and 100 μM, and fold-induction values were compared with predefined cut-off thresholds for each isoform and hepatocyte lot.

CYP2C9 = target: T3, CYP2C9 (Homo sapiens, UniProt P11712); assay: CYP inhibition in human liver microsomes; format: in vitro ADME; conditions: n = 2, read-out: CYP inhibition 2C9
T3 construct: tissue Eurofins Cerep (assay provider); host or cells: human liver microsomes
T3 sequence (P11712 whole entry): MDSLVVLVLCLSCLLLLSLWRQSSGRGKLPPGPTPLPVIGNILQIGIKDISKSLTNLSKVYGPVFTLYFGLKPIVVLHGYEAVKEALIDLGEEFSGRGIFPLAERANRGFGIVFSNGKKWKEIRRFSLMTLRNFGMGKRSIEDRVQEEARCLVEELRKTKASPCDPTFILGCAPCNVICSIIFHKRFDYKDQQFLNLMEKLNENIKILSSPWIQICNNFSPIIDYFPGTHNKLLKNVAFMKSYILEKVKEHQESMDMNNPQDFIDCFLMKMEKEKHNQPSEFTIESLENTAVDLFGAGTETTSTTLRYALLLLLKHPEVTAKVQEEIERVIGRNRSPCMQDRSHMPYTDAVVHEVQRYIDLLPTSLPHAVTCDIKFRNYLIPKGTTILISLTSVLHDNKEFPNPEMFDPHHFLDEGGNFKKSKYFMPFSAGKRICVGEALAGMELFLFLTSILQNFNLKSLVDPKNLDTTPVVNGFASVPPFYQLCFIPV
Procedure: as §1, §2

CYP3A = assay: CYP inhibition in human liver microsomes; format: in vitro ADME; conditions: n = 2, read-out: CYP inhibition 3A
Procedure: as §1, §2

CYP2B6 = target: T4, CYP2B6 (Homo sapiens, UniProt P20813); assay: CYP inhibition in human liver microsomes; format: in vitro ADME; conditions: n = 2, read-out: CYP inhibition 2B6
T4 construct: tissue Eurofins Cerep (assay provider); host or cells: human liver microsomes
T4 sequence (P20813 whole entry): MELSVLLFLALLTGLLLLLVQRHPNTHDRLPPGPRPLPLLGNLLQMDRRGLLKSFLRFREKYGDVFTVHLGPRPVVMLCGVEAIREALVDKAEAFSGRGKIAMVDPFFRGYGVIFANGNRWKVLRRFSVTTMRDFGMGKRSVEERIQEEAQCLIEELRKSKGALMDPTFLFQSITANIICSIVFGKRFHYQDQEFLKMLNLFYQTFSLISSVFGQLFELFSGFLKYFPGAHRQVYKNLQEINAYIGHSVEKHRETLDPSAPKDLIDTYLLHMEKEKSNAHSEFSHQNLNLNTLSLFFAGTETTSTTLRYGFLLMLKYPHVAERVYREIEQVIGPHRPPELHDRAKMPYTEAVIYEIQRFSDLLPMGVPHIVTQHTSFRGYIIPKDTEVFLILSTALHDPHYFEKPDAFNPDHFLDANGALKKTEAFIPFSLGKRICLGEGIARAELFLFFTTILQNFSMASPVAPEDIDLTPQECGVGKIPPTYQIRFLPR
Procedure: as §1, §2

CYP1A = assay: CYP inhibition in human liver microsomes; format: in vitro ADME; conditions: n = 2, read-out: CYP inhibition 1A
Procedure: as §1, §2

CYP2C8 = target: T5, CYP2C8 (Homo sapiens, UniProt P10632); assay: CYP inhibition in human liver microsomes; format: in vitro ADME; conditions: n = 2, read-out: CYP inhibition 2C8
T5 construct: tissue Eurofins Cerep (assay provider); host or cells: human liver microsomes
T5 sequence (P10632 whole entry): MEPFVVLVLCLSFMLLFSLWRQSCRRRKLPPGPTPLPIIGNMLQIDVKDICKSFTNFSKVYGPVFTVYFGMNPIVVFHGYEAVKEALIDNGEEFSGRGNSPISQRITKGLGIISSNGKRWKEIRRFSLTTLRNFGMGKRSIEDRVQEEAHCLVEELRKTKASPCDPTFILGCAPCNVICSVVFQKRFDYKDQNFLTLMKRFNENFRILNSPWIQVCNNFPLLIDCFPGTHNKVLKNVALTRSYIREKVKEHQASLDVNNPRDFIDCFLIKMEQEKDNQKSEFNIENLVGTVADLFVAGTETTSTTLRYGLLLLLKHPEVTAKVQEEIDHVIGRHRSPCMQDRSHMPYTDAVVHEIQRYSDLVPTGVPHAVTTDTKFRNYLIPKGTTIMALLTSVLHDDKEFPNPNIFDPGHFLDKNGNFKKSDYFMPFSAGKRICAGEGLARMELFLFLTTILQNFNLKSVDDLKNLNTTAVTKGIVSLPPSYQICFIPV
Procedure: as §1, §2

[1] = Plasma stability in mouse plasma; format: in vitro ADME; conditions: male CD-1 mouse plasma, 37 °C, read-out: Mouse plasma t1/2 (converted)
Procedure: (§3) Solubility and stability remained unchanged in simulated gastric fluid (SGF) and simulated intestinal fluid (SIF), which mimic gastrointestinal digestion. Intestinal permeability was assessed using a two-chamber system with apical (A, pH 6.5) and basolateral (B, pH 7.4) compartments, representing the luminal and blood/mesenteric lymph sides of the gastrointestinal tract, respectively. […] The efflux ratios for both compounds ranged between 1 and 2, indicating improved permeability relative to the reference compound 1.
Plasma stability was evaluated by M2SV (Lille, France) in duplicate. Male CD-1 mouse plasma (lithium-heparinized; Sera Laboratories International Ltd. BioIVT, West Sussex, UK) was pre-incubated for 10 min at 37 °C before addition of the test compound (final concentration 10 μM, 0.1% DMSO). At 0, 60, 1440, and 2880 min, aliquots were transferred to chilled tubes containing acetonitrile and propranolol (1 μM) as internal standard.

Microsomal stability = format: in vitro ADME; conditions: human, liver microsomes
Procedure: as §1

Plasma protein binding = format: in vitro ADME; conditions: n = 2
Procedure: as §3
Standardized in vitro ADME experiments were performed by Eurofins Cerep (Poitiers, France). […] The compound was classically evaluated at 10 µM for all of the ADME analyses. Bidirectional permeability (apical A to basolateral B pH 6.5/7.4, and basolateral B to apical A pH 7.4/6.5) was assessed in the epithelial colorectal adenocarcinoma cell line (Caco-2 cell line). The results were expressed as ×10^−6 cm/s (Papp) and as % recovery. The efflux ratio, i.e., Papp (B→A)/Papp(A→B), was calculated. Plasma protein binding was analyzed by HPLC-MS/MS after 4 h of incubation at 37 °C, as described by Banker et al.. Concentration was evaluated by LC/MS-MS. […] Respective metabolites for each specific transporter substrate were analyzed by fluorometry or scintillation counting, and % inhibition of control values were calculated. […] The efflux ratio was calculated as Papp(B→A)/Papp(A→B). […]

[2] = n = 2, read-out: Human liver microsome intrinsic clearance

CN(CCC(=O)NCc1cccc(Cl)c1)Cc1ccccc1 [Compound 2, 3-(Benzylmethylamino)-N-(3-chlorobenzyl)propanamide]
IC50 (S2R): 0.27 µM
inhibition at 10 µM (CYP2C19): 43.9%
inhibition at 10 µM (CYP2C9): 13.1%
inhibition at 10 µM (CYP3A): 30.9%
inhibition at 10 µM (CYP2B6): 16.9%
inhibition at 10 µM (CYP1A): 23.3%
inhibition at 10 µM (CYP2C8): -16.8%
half-life at 10 µM [1]: 35 h
microsomal CLint at 10 µM (Microsomal stability; [2]): 135 µL/min/mg
fraction unbound at 4 h, 10 µM (Plasma protein binding): 0.02

CN(CCC(=O)NCc1ccc(C#N)cc1)Cc1ccccc1 [Compound 6, 3-(Benzylmethylamino)-N-(4-cyanobenzyl)propanamide]
IC50 (S2R): 2.4 µM
inhibition at 10 µM (CYP2C19): 30%
inhibition at 10 µM (CYP2C9): 10%
inhibition at 10 µM (CYP3A): 17.4%
inhibition at 10 µM (CYP2B6): 17.7%
inhibition at 10 µM (CYP1A): 13.2%
inhibition at 10 µM (CYP2C8): -12.1%
half-life at 10 µM [1]: > 48 h
half-life at 10 µM (Microsomal stability; as in running text, read-out: Human liver microsome half-life): > 1 h
half-life at 10 µM (Microsomal stability; n = 2, read-out: Human liver microsome half-life t1/2): > 1 h
microsomal CLint at 10 µM (Microsomal stability; [2]): < 116 µL/min/mg
microsomal CLint at 10 µM (Microsomal stability; read-out: Human liver microsome clearance): < 115 µL/min/mg
fraction unbound at 4 h, 10 µM (Plasma protein binding): 0.37
